# Key:
# [1] = test system: antibodies in sera from SARS patients (sera 1a, 1b, 2, 6, 37, 62, London, SARS-yellow, SARS-green); format: binding, human; set-up: Binding of serum 6 to linear peptides of protein X1 of SARS-CoV Urbani / Binding of serum 37 to linear peptides of protein X1 of SARS-CoV Urbani / Binding of serum 6 to looped/cyclic peptide (PEPSCAN-ELISA) / Binding of serum 37 to looped/cyclic peptide (PEPSCAN-ELISA) / Binding of serum 37 to looped/cyclic peptides of protein X1 of SARS-CoV Urbani / Binding of serum 6 to linear peptides of protein X2 / Binding of serum 37 to linear peptides of protein X2 / Binding of serum 37 to looped/cyclic peptides of protein X2 of SARS-CoV Urbani / Binding of serum 6 to linear peptides of protein M of SARS-CoV Urbani / Binding of serum 37 to linear peptides of protein M of SARS-CoV Urbani / Binding of serum 6 to looped/cyclic peptides of protein M of SARS-CoV Urbani / Binding of serum 37 to looped/cyclic peptides of protein M of SARS-CoV Urbani / Binding of serum 6 to linear peptides of protein X3 of SARS-CoV Urbani / Binding of serum 37 to linear peptides of protein X3 of SARS-CoV Urbani / Binding of serum 37 to looped/cyclic peptides of protein X3 of SARS-CoV Urbani / Binding of serum 6 to linear peptides of protein X4 of SARS-CoV Urbani / Binding of serum 37 to linear peptides of protein X4 of SARS-CoV Urbani / Binding of serum 37 to looped/cyclic peptides of protein X4 of SARS-CoV Urbani / Binding of serum 6 to linear peptides of protein X5 of SARS-CoV Urbani / Binding of serum 37 to linear peptides of protein X5 of SARS-CoV Urbani / Binding of serum 37 to looped/cyclic peptides of protein X5 of SARS-CoV Urbani / Binding of serum 6 to linear peptides of protein N of SARS-CoV Urbani / Binding of serum 37 to linear peptides of protein N of SARS-CoV Urbani / Binding of serum 6 to linear peptide (PEPSCAN-ELISA) / Binding of serum 1a to looped/cyclic peptides of protein N of SARS-CoV Urbani / Binding of serum 1b to looped/cyclic peptides of protein N of SARS-CoV Urbani / Binding of serum 2 to looped/cyclic peptides of protein N of SARS-CoV Urbani / Binding of serum 6 to looped/cyclic peptides of protein N of SARS-CoV Urbani / Binding of serum 37 to looped/cyclic peptides of protein N of SARS-CoV Urbani / Binding of serum 62 to looped/cyclic peptides of protein N of SARS-CoV Urbani / Binding of serum London to looped/cyclic peptides of protein N of SARS-CoV Urbani / Binding of serum SARS-green to looped/cyclic peptides of protein N of SARS-CoV Urbani: unit not given here
# [2] = test system: control sera (pooled serum of ten healthy LUMC hospital workers; commercial negative donor pooled serum from the Dutch bloodbank); format: binding, human; set-up: Binding of Control serum LUMC to linear peptides / Binding of Control serum Blood-bank to linear peptides / Binding of Control serum LUMC to looped peptides / Binding of Control Serum Blood-Bank to Looped peptides / Binding of Control serum LUMC to linear peptides of the protein M of SARS-CoV Urbani / Binding of Control serum Blood-bank to linear peptides of the protein M of SARS-CoV Urbani / Binding of Control serum LUMC to looped peptides of the protein M of SARS-CoV Urbani / Binding of Control Serum Blood-Bank to Looped peptides of the protein M of SARS-CoV Urbani: unit not given here
# [3] = test system: rabbit serum obtained by immunizing a rabbit with the SARS-CoV strain Frankfurt 1; format: binding; set-up: Binding of a rabbit serum to linear peptides / Binding of a rabbit serum to looped peptides / Rabbit serum linear peptides / Rabbit serum looped peptides / Binding of a rabbit serum to linear peptides of protein N of SARS-CoV Urbani (Rabbit serum linear peptides) / Binding of a rabbit serum to looped/cyclic peptides of protein N of SARS-CoV Urbani (Rabbit serum looped peptides): unit not given here
sequence,measurement,setting,value
VLAAVYRINWVTGGI,Binding of serum 1a to linear peptides of protein M of SARS-CoV Urbani,[1],0.8
same,Binding of serum 1a to looped/cyclic peptides of protein M of SARS-CoV Urbani,[1],0.6
same,Binding of serum 1b to linear peptides of protein M of SARS-CoV Urbani,[1],0.7
same,Binding of serum 1b to looped/cyclic peptides of protein M of SARS-CoV Urbani,[1],0.5
same,Binding of serum 2 to linear peptides of protein M of SARS-CoV Urbani,[1],0.7
same,Binding of serum 2 to looped/cyclic peptides of protein M of SARS-CoV Urbani,[1],0.6
same,Binding of serum 6 to linear peptides of protein M of SARS-CoV Urbani,[1],0.5
same,Binding of serum 6 to looped/cyclic peptides of protein M of SARS-CoV Urbani,[1],0.7
same,Binding of serum 37 to linear peptides of protein M of SARS-CoV Urbani,[1],0.6
same,Binding of serum 37 to looped/cyclic peptides of protein M of SARS-CoV Urbani,[1],0.6
same,Binding of serum 62 to linear peptides of protein M of SARS-CoV Urbani,[1],0.6
same,Binding of serum 62 to looped/cyclic peptides of protein M of SARS-CoV Urbani,[1],0.5
same,Binding of serum London to linear peptides of protein M of SARS-CoV Urbani,[1],0.4
same,Binding of serum London to looped/cyclic peptides of protein M of SARS-CoV Urbani,[1],0.2
same,Binding of serum SARS-green to linear peptides of protein M of SARS-CoV Urbani,[1],0.6
same,Binding of serum SARS-green to looped/cyclic peptides of protein M of SARS-CoV Urbani,[1],0.2
same,Binding of serum SARS-yellow to linear peptides of protein M of SARS-CoV Urbani,[1],0.2
same,Binding of serum SARS-yellow to looped/cyclic peptides of protein M of SARS-CoV Urbani,[1],0.6
same,Binding of Control Serum Blood-Bank to Looped peptides of the protein M of SARS-CoV Urbani,[2],0.8
same,Binding of Control serum Blood-bank to linear peptides of the protein M of SARS-CoV Urbani,[2],0.9
same,Binding of Control serum LUMC to linear peptides of the protein M of SARS-CoV Urbani,[2],1.0
same,Binding of Control serum LUMC to looped peptides of the protein M of SARS-CoV Urbani,[2],0.8
same,Rabbit serum linear peptides,[3],0.3
same,Rabbit serum looped peptides,[3],0.0
VLKMLHSSSLTSLLK,Binding of serum 1a to linear peptides of protein X2,[1],0.6
same,Binding of serum 1a to looped/cyclic peptides of protein X2 of SARS-CoV Urbani,[1],0.4
same,Binding of serum 1b to linear peptides of protein X2,[1],0.5
same,Binding of serum 1b to looped/cyclic peptides of protein X2 of SARS-CoV Urbani,[1],0.2
same,Binding of serum 2 to linear peptides of protein X2,[1],0.5
same,Binding of serum 2 to looped/cyclic peptides of protein X2 of SARS-CoV Urbani,[1],0.1
same,Binding of serum 6 to linear peptides of protein X2,[1],0.5
same,Binding of serum 6 to looped/cyclic peptides of protein X2 of SARS-CoV Urbani,[1],0.1
same,Binding of serum 37 to linear peptides of protein X2,[1],0.5
same,Binding of serum 37 to looped/cyclic peptides of protein X2 of SARS-CoV Urbani,[1],0.2
same,Binding of serum 62 to linear peptides of protein X2,[1],0.6
same,Binding of serum 62 to looped/cyclic peptides of protein X2 of SARS-CoV Urbani,[1],0.4
same,Binding of serum London to linear peptides of protein X2,[1],0.4
same,Binding of serum London to looped/cyclic peptides of protein X2 of SARS-CoV Urbani,[1],0.1
same,Binding of serum SARS-green to linear peptides of protein X2,[1],0.5
same,Binding of serum SARS-green to looped/cyclic peptides of protein X2 of SARS-CoV Urbani,[1],0.2
same,Binding of serum SARS-yellow to linear peptides of protein X2,[1],0.5
same,Binding of serum SARS-yellow to looped/cyclic peptides of protein X2 of SARS-CoV Urbani,[1],0.2
same,Binding of Control Serum Blood-Bank to Looped peptides,[2],0.5
same,Binding of Control serum Blood-bank to linear peptides,[2],0.7
same,Binding of Control serum LUMC to linear peptides,[2],0.4
same,Binding of Control serum LUMC to looped peptides,[2],0.3
same,Binding of a rabbit serum to linear peptides,[3],0.2
same,Binding of a rabbit serum to looped peptides,[3],0.3
VRYNTRGNTYSTAWL,Binding of serum 1a to linear peptides of protein X5 of SARS-CoV Urbani,[1],0.7
same,Binding of serum 1a to looped/cyclic peptides of protein X5 of SARS-CoV Urbani,[1],0.5
same,Binding of serum 1b to linear peptides of protein X5 of SARS-CoV Urbani,[1],0.4
same,Binding of serum 1b to looped/cyclic peptides of protein X5 of SARS-CoV Urbani,[1],0.3
same,Binding of serum 2 to linear peptides of protein X5 of SARS-CoV Urbani,[1],0.4
same,Binding of serum 2 to looped/cyclic peptides of protein X5 of SARS-CoV Urbani,[1],0.4
same,Binding of serum 6 to linear peptides of protein X5 of SARS-CoV Urbani,[1],0.7
same,Binding of serum 6 to looped/cyclic peptides of protein X5 of SARS-CoV Urbani,[1],0.3
same,Binding of serum 37 to linear peptides of protein X5 of SARS-CoV Urbani,[1],0.6
same,Binding of serum 37 to looped/cyclic peptides of protein X5 of SARS-CoV Urbani,[1],0.6
same,Binding of serum 62 to linear peptides of protein X5 of SARS-CoV Urbani,[1],0.7
same,Binding of serum 62 to looped/cyclic peptides of protein X5 of SARS-CoV Urbani,[1],0.4
same,Binding of serum London to linear peptides of protein X5 of SARS-CoV Urbani,[1],0.7
same,Binding of serum London to looped/cyclic peptides of protein X5 of SARS-CoV Urbani,[1],0.2
same,Binding of serum SARS-green to linear peptides of protein X5 of SARS-CoV Urbani,[1],0.4
same,Binding of serum SARS-green to looped/cyclic peptides of protein X5 of SARS-CoV Urbani,[1],0.6
same,Binding of serum SARS-yellow to linear peptides of protein X5 of SARS-CoV Urbani,[1],0.4
same,Binding of serum SARS-yellow to looped/cyclic peptides of protein X5 of SARS-CoV Urbani,[1],0.6
same,Binding of Control Serum Blood-Bank to Looped peptides,[2],0.3
same,Binding of Control serum Blood-bank to linear peptides,[2],0.9
same,Binding of Control serum LUMC to linear peptides,[2],0.5
same,Binding of Control serum LUMC to looped peptides,[2],0.5
same,Rabbit serum linear peptides,[3],0.7
same,Rabbit serum looped peptides,[3],1.2

# Source: patent publication US20070128217A1 (priority 2003, published 2007)
